The NIST ThermoML archive (doi:10.1021/je201334p)

Experiments:
[1] = refractive index (Na D-line) (dimensionless); xn = mol fraction of the nth substance listed; details: 101 kPa, Liquid, Standard Abbe refractometry
[2] = xn = mol fraction of the nth substance listed; details: 101 kPa, Liquid; for speed of sound: Sing-around technique in a fixed-path interferometer; for mass density: Vibrating tube method

CCCCn1cc[n+](C)c1.N#CN=C=[N-] [1-butyl-3-methylimidazolium dicyanamide] + O
Details	mass density, 288.15 K [kg/m3]	mass density, 298.15 K [kg/m3]	mass density, 308.15 K [kg/m3]	refractive index, 288.15 K	refractive index, 298.15 K	refractive index, 308.15 K	speed of sound, 288.15 K [m/s]	speed of sound, 298.15 K [m/s]	speed of sound, 308.15 K [m/s]
[1], x2 = 0	–	–	–	1.51213	1.50893	1.50578	–	–	–
[1], x2 = 0.1088	–	–	–	1.5099	1.50673	1.50348	–	–	–
[1], x2 = 0.1227	–	–	–	1.50953	1.50631	1.50321	–	–	–
[1], x2 = 0.2017	–	–	–	1.50758	1.50443	1.50114	–	–	–
[1], x2 = 0.2943	–	–	–	1.50476	1.50161	1.49821	–	–	–
[1], x2 = 0.3952	–	–	–	1.50075	1.49756	1.49443	–	–	–
[1], x2 = 0.503	–	–	–	1.49536	1.49223	1.48897	–	–	–
[1], x2 = 0.5985	–	–	–	1.48855	1.48541	1.48225	–	–	–
[1], x2 = 0.7032	–	–	–	1.47799	1.47495	1.47147	–	–	–
[1], x2 = 0.805	–	–	–	1.46004	1.45694	1.45386	–	–	–
[1], x2 = 0.9006	–	–	–	1.42867	1.42613	1.42382	–	–	–
[1], x2 = 0.9503	–	–	–	1.39733	1.3952	1.39322	–	–	–
[2], x2 = 0	1066.58	1060.17	1053.83	–	–	–	1764.3	1738.1	1713.1
[2], x2 = 0.1088	1065.59	1059.16	1052.79	–	–	–	1762	1736.9	1712.4
[2], x2 = 0.1227	1065.44	1059.01	1052.64	–	–	–	1761.9	1736.8	1712.2
[2], x2 = 0.2017	1064.62	1058.16	1051.77	–	–	–	1760.9	1735.9	1711.6
[2], x2 = 0.2943	1063.46	1056.98	1050.55	–	–	–	1759.9	1735	1710.7
[2], x2 = 0.3952	1061.88	1055.35	1048.88	–	–	–	1758.3	1734	1710
[2], x2 = 0.503	1059.83	1053.24	1046.7	–	–	–	1756.8	1733	1709.4
[2], x2 = 0.5985	1057.37	1050.71	1044.09	–	–	–	1755.5	1732.1	1709
[2], x2 = 0.7032	1053.63	1046.89	1040.15	–	–	–	1751.4	1729.1	1706.9
[2], x2 = 0.805	1047.26	1040.5	1033.69	–	–	–	1738.5	1718.6	1698.2
[2], x2 = 0.9006	1035.92	1029.6	1023.11	–	–	–	1694.1	1682.2	1668.8
[2], x2 = 0.9503	1024.07	1018.75	1013.06	–	–	–	1630.6	1630.5	1627.4
